According to US20210323977A1, “PYRROLIDINYL AMIDE COMPOUNDS FOR THE TREATMENT OF AUTOIMMUNE DISEASE” (Hoffmann-La Roche Inc., priority 2018, published 2021):

The molecules below were run against T1, human TLR9 (Homo sapiens, UniProt Q9NR96) (assay: HEK293-Blue-hTLR-9 cells assay). Details: HEK293-Blue-hTLR9 cells, SEAP reporter, ODN2006 stimulation, 20 hrs.
T1 sequence (Q9NR96 26-1032): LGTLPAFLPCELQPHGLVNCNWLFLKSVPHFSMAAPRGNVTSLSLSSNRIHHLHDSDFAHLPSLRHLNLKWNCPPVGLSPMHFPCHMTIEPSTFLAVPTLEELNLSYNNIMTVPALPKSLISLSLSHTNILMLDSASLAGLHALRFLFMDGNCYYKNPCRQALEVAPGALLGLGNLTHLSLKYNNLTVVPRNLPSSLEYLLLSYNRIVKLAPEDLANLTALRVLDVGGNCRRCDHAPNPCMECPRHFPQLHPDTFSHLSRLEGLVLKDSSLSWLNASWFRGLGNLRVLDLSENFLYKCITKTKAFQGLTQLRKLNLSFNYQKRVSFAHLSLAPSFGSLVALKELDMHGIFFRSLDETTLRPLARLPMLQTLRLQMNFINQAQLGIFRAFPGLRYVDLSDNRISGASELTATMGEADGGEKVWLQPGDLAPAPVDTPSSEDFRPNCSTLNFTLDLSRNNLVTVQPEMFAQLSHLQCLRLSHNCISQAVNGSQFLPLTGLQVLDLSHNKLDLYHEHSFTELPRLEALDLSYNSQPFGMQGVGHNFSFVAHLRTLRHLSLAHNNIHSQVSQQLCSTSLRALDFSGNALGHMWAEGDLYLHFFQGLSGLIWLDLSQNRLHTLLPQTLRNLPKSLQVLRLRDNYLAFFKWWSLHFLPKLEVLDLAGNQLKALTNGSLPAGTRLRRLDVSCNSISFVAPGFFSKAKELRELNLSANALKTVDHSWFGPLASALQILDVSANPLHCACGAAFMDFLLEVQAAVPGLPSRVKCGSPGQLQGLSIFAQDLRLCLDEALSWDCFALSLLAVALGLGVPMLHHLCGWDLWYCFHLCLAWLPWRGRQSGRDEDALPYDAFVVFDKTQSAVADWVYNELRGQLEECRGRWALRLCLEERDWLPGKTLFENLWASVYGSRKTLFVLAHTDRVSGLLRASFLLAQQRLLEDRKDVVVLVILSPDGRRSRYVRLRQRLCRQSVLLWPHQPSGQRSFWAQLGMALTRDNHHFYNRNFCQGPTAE
Type: cell-based
Source text: HEK293-Blue-hTLR-9 Cells Assay:
A stable HEK293-Blue-hTLR-9 cell line was purchased from InvivoGen (Cat. #: hkb-htlh9, San Diego, Calif., USA). These cells were originally designed for studying the stimulation of human TLR9 by monitoring the activation of NF-κB. A SEAP (secreted embryonic alkaline phosphatase) reporter gene was placed under the control of the IFN-β minimal promoter fused to five NF-κB and AP-1-binding sites. The SEAP was induced by activating NF-κB and AP-1 via stimulating HEK-Blue hTLR9 cells with TLR9 ligands. Therefore the reporter expression was declined by TLR9 antagonist under the stimulation of a ligand, such as ODN2006 (Cat. #: tlrl-2006-1, Invivogen, San Diego, Calif., USA), for incubation of 20 hrs. The cell culture supernatant SEAP reporter activity was determined using QUANTI-Blue™ kit (Cat. #: rep-qb1, Invivogen, San Diego, Calif., USA) at a wavelength of 640 nm, a detection medium that turns purple or blue in the presence of alkaline phosphatase.
HEK293-Blue-hTLR9 cells were incubated at a density of 250,000-450,000 cells/mL in a volume of 170 μL in a 96-well plate in Dulbecco's Modified Eagle's medium (DMEM) containing 4.5 g/L glucose, 50 U/mL penicillin, […], […], 2 mM L-glutamine, 10% (v/v) heat-inactivated fetal bovine serum with addition of 20 sL test compound in a serial dilution in the presence of final DMSO at 1% and 10 sL of 20 uM ODN2006 in above DMEM, perform incubation under 37° C. in a CO2 incubator for 20 hrs. Then 20 sL of the supernatant from each well was incubated with 180 μL Quanti-blue substrate solution at 37° C. for 2 hrs and the absorbance was read at 620-655 nm using a spectrophotometer. The signalling pathway that TLR9 activation leads to downstream NF-x3B activation has been widely accepted, and therefore similar reporter assay was modified for evaluating TLR9 antagonist.
`N#Cc1ccc(N2C[C@@H](C(F)(F)F)[C@H](C(=O)N[C@H]3CNC[C@H]3F)C2)c2cccnc12` [Example 47, Trans-1-(8-cyano-5-quinolyl)-N-[(3S,4R)-4-fluoropyrrolidin-3-yl]-4-(trifluoromethyl)pyrrolidine-3-carboxamide] showed an IC50 of 23.1 µM.
`C[C@H]1CN(c2ccc(Cl)c3ncccc23)C[C@@H]1C(=O)NC1CCN(C)CC1` [Example 50, (3R,4R)-1-(8-chloro-5-quinolyl)-4-methyl-N-(1-methyl-4-piperidyl)pyrrolidine-3-carboxamide] gave an IC50 of 3.4 µM.
`CN1CCCC(CNC(=O)C2CN(c3ccc(C#N)c4ncccc34)CC23CC3)C1` (centres unmarked) [Example 51, 5-(8-Cyano-5-quinolyl)-N-[(1-methyl-3-piperidyl)methyl]-5-azaspiro[2.4]heptane-7-carboxamide] gave an IC50 of 2 µM.
`C[C@@H]1CN(c2ccc(C#N)c3ncccc23)C[C@H]1C(=O)N[C@H]1CNC[C@H]1F` [Example 56, Trans-1-(8-cyano-5-quinolyl)-N-[(3S,4R)-4-fluoropyrrolidin-3-yl]-4-methyl-pyrrolidine-3-carboxamide] gave an IC50 of 18.6 µM.
In the case of `C[C@H]1CN(c2ccc(C#N)c3nccnc23)C[C@@H]1C(=O)NC1CCN(C2CCNCC2)CC1` [Example 60, (3R,4R)-1-(8-cyanoquinoxalin-5-yl)-4-methyl-N-[1-(4-piperidyl)-4-piperidyl]pyrrolidine-3-carboxamide], the IC50 is reported as 3.2 µM.
